Read-outs that look alike come from different tables or passages of the source. Each block holds one compound with its values, some of them ahead of it.
Assays:
Test in all cases: biochemical
Design in all cases: species or system human cell line lysate
[1] = target: Leucine-rich repeat serine/threonine-protein kinase 2 ; LRRK2 ; Q5S007 (Homo sapiens, UniProt Q5S007)
[2] = target: Non-receptor tyrosine-protein kinase TNK1 ; TNK1 ; Q13470 (Homo sapiens, UniProt Q13470)
[3] = target: STE20-like serine/threonine-protein kinase ; SLK ; Q9H2G2 (Homo sapiens, UniProt Q9H2G2)
[4] = target: Isoform 3 of Casein kinase I isoform alpha ; CSNK1A1 ; P48729-3 (Homo sapiens, UniProt P48729)
[5] = target: Aurora kinase C ; AURKC ; Q9UQB9 (Homo sapiens, UniProt Q9UQB9)
[6] = target: Serine/threonine-protein kinase MRCK gamma ; CDC42BPG ; Q6DT37 (Homo sapiens, UniProt Q6DT37)
[7] = target: MAP kinase-activated protein kinase 2 ; MAPKAPK2 ; P49137 (Homo sapiens, UniProt P49137)
[8] = target: Serine/threonine-protein kinase MRCK alpha ; CDC42BPA ; Q5VT25 (Homo sapiens, UniProt Q5VT25)
[9] = target: Isoform Mxi2 of Mitogen-activated protein kinase 14 ; MAPK14 ; Q16539-3 (Homo sapiens, UniProt Q16539)
[10] = target: T1, Dual specificity mitogen-activated protein kinase kinase 3 ; MAP2K3 ; P46734 (Homo sapiens, UniProt P46734)
T1 sequence (P46734 1-347): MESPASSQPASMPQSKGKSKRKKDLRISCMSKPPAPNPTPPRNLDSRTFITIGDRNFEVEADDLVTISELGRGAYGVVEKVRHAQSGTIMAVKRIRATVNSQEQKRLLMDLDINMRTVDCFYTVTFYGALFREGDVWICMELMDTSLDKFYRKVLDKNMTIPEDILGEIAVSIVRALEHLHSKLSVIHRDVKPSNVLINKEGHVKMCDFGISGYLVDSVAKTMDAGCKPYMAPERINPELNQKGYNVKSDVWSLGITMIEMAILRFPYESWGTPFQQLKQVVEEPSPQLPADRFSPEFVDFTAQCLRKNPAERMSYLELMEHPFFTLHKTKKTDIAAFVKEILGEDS

[11] = target: Serine/threonine-protein kinase 10 ; STK10 ; O94804 (Homo sapiens, UniProt O94804)
[12] = target: Mitogen-activated protein kinase kinase kinase 2 ; MAP3K2 ; Q9Y2U5 (Homo sapiens, UniProt Q9Y2U5)
[13] = target: Phosphoinositide 3-kinase regulatory subunit 4 ; PIK3R4 ; Q99570 (Homo sapiens, UniProt Q99570)
[14] = target: Isoform 1A of Mitogen-activated protein kinase kinase kinase 7 ; MAP3K7 ; O43318-2 (Homo sapiens, UniProt O43318)
[15] = target: Casein kinase I isoform gamma-2 ; CSNK1G2 ; P78368 (Homo sapiens, UniProt P78368)
[16] = target: Serine/threonine-protein kinase 16 ; STK16 ; O75716 (Homo sapiens, UniProt O75716)
[17] = target: Dual specificity protein kinase CLK1 ; CLK1 ; P49759 (Homo sapiens, UniProt P49759)
[18] = target: Isoform 2 of Casein kinase I isoform delta ; CSNK1D ; P48730-2 (Homo sapiens, UniProt P48730)
[19] = target: Tyrosine-protein kinase Lyn ; LYN ; P07948 (Homo sapiens, UniProt P07948)
[20] = target: Serine/threonine-protein kinase D2 ; PRKD2 ; Q9BZL6 (Homo sapiens, UniProt Q9BZL6)
[21] = read-out: BAY-1251152 (10 µM) / %Intensity relative to DMSO
[22] = read-out: BAY-1143572 (10 µM) / %Intensity relative to DMSO

Isoform 1A of Mitogen-activated protein kinase kinase kinase 7 ; MAP3K7 ; O43318-2, sequence (O43318 whole entry, canonical isoform): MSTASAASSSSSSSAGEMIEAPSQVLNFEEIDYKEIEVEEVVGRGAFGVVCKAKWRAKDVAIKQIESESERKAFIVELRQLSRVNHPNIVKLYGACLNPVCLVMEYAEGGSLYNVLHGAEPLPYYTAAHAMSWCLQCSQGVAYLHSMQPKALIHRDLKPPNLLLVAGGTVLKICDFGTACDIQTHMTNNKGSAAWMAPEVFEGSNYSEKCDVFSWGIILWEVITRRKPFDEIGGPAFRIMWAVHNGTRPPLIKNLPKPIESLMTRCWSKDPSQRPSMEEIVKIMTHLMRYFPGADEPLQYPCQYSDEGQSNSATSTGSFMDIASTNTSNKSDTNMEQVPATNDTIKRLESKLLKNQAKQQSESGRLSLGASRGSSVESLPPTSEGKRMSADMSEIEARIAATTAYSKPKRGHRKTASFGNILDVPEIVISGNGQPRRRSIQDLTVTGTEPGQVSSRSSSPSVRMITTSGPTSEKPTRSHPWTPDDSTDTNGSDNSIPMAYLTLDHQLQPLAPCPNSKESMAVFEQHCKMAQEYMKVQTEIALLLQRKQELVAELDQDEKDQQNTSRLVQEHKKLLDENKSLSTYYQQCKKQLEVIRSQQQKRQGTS
STE20-like serine/threonine-protein kinase ; SLK ; Q9H2G2, sequence (Q9H2G2 whole entry, canonical isoform, one chain of several): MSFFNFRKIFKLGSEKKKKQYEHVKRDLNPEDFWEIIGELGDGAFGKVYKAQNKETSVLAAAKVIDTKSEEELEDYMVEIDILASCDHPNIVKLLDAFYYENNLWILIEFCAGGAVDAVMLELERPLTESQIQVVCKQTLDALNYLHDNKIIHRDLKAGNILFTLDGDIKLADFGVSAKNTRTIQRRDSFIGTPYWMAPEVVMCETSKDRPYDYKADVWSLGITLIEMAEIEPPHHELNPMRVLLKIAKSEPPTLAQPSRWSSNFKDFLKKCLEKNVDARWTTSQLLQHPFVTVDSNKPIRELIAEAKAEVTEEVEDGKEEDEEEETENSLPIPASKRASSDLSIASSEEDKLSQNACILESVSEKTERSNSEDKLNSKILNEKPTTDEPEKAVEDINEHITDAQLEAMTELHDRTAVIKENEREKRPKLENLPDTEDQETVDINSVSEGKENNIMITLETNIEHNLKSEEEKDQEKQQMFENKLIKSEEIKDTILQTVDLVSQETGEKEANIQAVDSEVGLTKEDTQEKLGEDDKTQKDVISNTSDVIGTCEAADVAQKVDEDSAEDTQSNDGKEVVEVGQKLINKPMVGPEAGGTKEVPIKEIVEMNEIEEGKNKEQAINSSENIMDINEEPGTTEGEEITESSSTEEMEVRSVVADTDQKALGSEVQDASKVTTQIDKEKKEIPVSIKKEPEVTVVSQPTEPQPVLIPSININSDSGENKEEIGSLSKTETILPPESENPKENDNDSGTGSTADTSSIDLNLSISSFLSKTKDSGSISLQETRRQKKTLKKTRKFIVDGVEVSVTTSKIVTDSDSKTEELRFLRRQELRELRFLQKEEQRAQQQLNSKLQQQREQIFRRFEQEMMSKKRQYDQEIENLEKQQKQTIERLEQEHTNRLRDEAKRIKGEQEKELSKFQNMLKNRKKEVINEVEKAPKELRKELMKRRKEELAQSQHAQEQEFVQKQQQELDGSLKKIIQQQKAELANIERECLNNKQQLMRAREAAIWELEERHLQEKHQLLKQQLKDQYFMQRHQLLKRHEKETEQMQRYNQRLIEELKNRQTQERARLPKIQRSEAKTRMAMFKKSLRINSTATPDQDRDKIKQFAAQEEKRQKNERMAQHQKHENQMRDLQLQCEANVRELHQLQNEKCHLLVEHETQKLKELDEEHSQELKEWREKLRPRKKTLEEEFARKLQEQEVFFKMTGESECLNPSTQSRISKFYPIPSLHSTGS
Isoform 3 of Casein kinase I isoform alpha ; CSNK1A1 ; P48729-3, sequence (P48729 whole entry, canonical isoform): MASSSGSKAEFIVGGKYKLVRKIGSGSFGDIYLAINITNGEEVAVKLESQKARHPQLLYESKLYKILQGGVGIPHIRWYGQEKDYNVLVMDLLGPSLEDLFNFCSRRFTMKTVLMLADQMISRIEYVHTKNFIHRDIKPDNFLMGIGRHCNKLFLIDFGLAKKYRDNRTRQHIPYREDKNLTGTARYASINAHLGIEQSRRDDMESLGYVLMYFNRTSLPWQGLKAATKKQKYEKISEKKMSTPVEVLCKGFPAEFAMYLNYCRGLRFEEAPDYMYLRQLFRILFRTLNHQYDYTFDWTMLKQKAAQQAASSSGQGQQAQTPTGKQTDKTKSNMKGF
Tyrosine-protein kinase Lyn ; LYN ; P07948, sequence (P07948 whole entry): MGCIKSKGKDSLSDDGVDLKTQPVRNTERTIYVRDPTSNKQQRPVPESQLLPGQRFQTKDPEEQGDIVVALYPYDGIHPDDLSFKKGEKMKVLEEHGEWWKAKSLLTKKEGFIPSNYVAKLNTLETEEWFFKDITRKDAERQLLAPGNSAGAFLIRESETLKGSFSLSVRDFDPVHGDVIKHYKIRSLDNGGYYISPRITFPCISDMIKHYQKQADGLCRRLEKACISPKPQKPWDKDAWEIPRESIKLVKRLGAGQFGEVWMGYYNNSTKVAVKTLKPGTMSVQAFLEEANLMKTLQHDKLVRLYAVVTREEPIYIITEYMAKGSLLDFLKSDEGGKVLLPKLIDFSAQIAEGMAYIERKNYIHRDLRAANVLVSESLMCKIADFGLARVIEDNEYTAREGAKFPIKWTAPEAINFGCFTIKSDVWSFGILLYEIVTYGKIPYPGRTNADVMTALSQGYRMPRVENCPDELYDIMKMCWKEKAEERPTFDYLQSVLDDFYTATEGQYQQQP
Serine/threonine-protein kinase D2 ; PRKD2 ; Q9BZL6, sequence (Q9BZL6 whole entry, one chain of several): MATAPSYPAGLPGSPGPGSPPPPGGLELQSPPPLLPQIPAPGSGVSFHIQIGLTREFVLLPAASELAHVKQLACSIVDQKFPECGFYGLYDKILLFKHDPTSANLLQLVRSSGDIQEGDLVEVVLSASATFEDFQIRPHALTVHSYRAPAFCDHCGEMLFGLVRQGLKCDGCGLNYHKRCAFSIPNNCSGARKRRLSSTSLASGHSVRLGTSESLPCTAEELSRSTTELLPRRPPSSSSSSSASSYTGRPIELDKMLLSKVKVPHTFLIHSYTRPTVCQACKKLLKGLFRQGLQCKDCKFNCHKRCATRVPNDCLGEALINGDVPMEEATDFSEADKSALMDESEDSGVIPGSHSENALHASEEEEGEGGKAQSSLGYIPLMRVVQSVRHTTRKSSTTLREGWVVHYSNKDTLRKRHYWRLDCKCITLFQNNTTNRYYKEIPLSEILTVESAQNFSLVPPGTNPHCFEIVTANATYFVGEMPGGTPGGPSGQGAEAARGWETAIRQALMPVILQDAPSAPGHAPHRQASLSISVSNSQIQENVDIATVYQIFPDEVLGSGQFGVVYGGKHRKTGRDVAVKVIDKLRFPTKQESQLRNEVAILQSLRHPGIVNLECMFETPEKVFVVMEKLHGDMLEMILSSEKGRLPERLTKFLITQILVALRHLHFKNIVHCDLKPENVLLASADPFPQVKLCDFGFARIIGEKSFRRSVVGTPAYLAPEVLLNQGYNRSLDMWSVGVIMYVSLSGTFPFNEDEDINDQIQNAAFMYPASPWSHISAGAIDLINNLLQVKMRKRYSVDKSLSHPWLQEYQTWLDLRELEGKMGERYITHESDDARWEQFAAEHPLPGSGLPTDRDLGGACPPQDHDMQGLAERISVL
Isoform Mxi2 of Mitogen-activated protein kinase 14 ; MAPK14 ; Q16539-3, sequence (Q16539 whole entry, canonical isoform): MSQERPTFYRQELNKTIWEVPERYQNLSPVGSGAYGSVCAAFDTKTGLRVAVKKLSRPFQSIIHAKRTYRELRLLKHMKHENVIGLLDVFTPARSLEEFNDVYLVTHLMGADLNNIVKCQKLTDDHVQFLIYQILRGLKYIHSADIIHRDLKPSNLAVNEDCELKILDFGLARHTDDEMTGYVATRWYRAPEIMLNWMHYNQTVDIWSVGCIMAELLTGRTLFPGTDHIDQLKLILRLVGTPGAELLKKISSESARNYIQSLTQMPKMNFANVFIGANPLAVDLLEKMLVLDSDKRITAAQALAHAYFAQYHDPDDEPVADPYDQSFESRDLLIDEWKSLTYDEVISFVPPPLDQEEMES
Dual specificity protein kinase CLK1 ; CLK1 ; P49759, sequence (P49759 whole entry, canonical isoform): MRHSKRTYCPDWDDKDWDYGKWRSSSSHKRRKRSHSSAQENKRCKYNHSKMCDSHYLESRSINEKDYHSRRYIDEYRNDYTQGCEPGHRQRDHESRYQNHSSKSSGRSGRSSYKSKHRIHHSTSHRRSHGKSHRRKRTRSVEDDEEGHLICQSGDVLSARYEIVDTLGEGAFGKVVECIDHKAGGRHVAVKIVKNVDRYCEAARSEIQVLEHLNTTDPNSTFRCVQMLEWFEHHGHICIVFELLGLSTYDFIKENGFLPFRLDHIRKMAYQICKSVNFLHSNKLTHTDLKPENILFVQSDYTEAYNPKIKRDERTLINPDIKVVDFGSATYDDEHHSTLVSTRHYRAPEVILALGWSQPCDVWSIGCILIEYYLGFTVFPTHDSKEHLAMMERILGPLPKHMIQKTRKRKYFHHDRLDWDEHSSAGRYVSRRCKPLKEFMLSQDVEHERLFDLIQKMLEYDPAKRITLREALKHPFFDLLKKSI
Isoform 2 of Casein kinase I isoform delta ; CSNK1D ; P48730-2, sequence (P48730 whole entry, canonical isoform): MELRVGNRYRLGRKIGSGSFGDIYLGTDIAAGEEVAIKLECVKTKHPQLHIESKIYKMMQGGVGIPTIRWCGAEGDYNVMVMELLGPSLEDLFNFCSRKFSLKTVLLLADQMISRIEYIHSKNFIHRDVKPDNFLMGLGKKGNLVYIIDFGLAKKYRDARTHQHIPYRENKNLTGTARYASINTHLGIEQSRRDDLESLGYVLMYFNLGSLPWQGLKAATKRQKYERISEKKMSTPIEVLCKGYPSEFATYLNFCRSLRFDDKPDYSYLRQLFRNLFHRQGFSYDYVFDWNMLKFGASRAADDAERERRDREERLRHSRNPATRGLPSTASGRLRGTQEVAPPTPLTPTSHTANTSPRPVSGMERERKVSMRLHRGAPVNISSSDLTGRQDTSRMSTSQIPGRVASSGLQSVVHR

remaining activity at 10 µM [1, 21]: 107%
remaining activity at 10 µM [2, 21]: 109%
remaining activity at 10 µM [3, 21]: 53.8%
remaining activity at 10 µM [4, 21]: 111%
remaining activity at 10 µM [5, 21]: 41.7%
remaining activity at 10 µM [6, 21]: 103%
remaining activity at 10 µM [7, 21]: 119%
remaining activity at 10 µM [8, 21]: 107%
remaining activity at 10 µM [9, 21]: 119%
remaining activity at 10 µM [10, 21]: 119%
remaining activity at 10 µM [11, 21]: 74.5%
remaining activity at 10 µM [12, 21]: 103%
remaining activity at 10 µM [13, 21]: 107%
remaining activity at 10 µM [14, 21]: 113%
remaining activity at 10 µM [15, 21]: 131%
remaining activity at 10 µM [16, 21]: 61.5%
remaining activity at 10 µM [17, 21]: 104%
remaining activity at 10 µM [18, 21]: 105%
remaining activity at 10 µM [19, 21]: 79.4%
remaining activity at 10 µM [20, 21]: 96.3%
SMILES: COc1cc(F)ccc1-c1cc(Nc2cc(CS(C)(=N)=O)ccn2)ncc1F (stereo not shown) [BAY-1251152]

remaining activity at 10 µM [1, 22]: 109%
remaining activity at 10 µM [2, 22]: 113%
remaining activity at 10 µM [3, 22]: 97.7%
remaining activity at 10 µM [4, 22]: 115%
remaining activity at 10 µM [5, 22]: 105%
remaining activity at 10 µM [6, 22]: 102%
remaining activity at 10 µM [7, 22]: 128%
remaining activity at 10 µM [8, 22]: 97.1%
remaining activity at 10 µM [9, 22]: 128%
remaining activity at 10 µM [10, 22]: 136%
remaining activity at 10 µM [11, 22]: 91.3%
remaining activity at 10 µM [12, 22]: 106%
remaining activity at 10 µM [13, 22]: 101%
remaining activity at 10 µM [14, 22]: 116%
remaining activity at 10 µM [15, 22]: 137%
remaining activity at 10 µM [16, 22]: 64.2%
remaining activity at 10 µM [17, 22]: 116%
remaining activity at 10 µM [18, 22]: 108%
remaining activity at 10 µM [19, 22]: 82%
remaining activity at 10 µM [20, 22]: 99.6%
SMILES: COc1cc(F)ccc1-c1ncnc(Nc2cccc(C[S@](C)(=N)=O)c2)n1 [BAY-1143572]
